Key:
[1] = potency of Amphotericin after foam drying and storage; type: physicochemical
Procedure: (7) Freeze-dried samples of Amphotericine B were rehydrated with 5 ml 40wt % sucrose per vial. Then the solutions were transferred into 50 ml sterilized glass vials for future preservation by drying. Before drying, the vials were covered with gray butyl slotted rubber stoppers. The vials were dried inside a vacuum chamber. The vials were sitting on the surface of a stainless steel shelf inside the chamber. The shelf temperature was controlled by circulating ethylene glycol/water antifreeze at a controlled temperature inside the shelf. Before the vacuum was applied the shelf temperature was decreased to 5° C. The hydrostatic pressure inside the chamber was decreased to 0.5 Torr. Under such a conditions the suspension boiled 30 min. The temperature of the shelf was then slowly (during 30 min) increased to 25° C. Visually, stable dry foams inside the vials under these experimental conditions were formed after 3 hours. After an additional 12 hours of drying at room temperature, the chamber was filled with the dry N2 gas and the rubber stoppers in a portion of the vials were pushed down. The vials were removed from the chamber and subsequently sealed with aluminum crimped seal. The samples were assayed right after drying and after 30 day of storage at 27.50 and 40° C. The results are shown in Table 1, together with the results obtained in the next experiment.
Another set of freeze-dried samples of Amphotericin B were rehydrated with 5 ml 40wt % sucrose per vial. The solutions were then transferred into sterilized glass vials for future preservation by drying similar to that described above with additional drying at 45° C. for additional 24 hours. After that, the chamber was filled again with the dry N2 gas, the rubber stoppers were pushed down and the vials were sealed. The samples were assayed right after drying and after 30 day of storage at 27.50 and 40° C.

[2] = Urokinase activity after foam drying and storage; type: physicochemical; conditions: 40wt % sucrose foam
Procedure: (6) Freezer-dried samples of Urokinase were rehydrated with 2 ml of 40wt % sucrose. The solutions were then transferred to 20 ml sterilized glass vials for future preservation by drying. Before drying, the vials were covered with gray slotted rubber stoppers. The vials were dried inside a vacuum chamber. The vials were sitting on the surface of a stainless steel shelf inside the chamber. The shelf temperature was controlled by circulating ethylene glycol/water antifreeze at a controlled temperature inside the shelf. Before the vacuum was applied the shelf temperature was decreased to 5° C. Then the hydrostatic pressure inside the chamber was decreased to 0.5 Torr. Under such a conditions the suspension boiled 30 min. […] Visually, stable dry foams inside the vials under these experimental conditions were formed during 3 hours. After an additional 12 hours of drying at room temperature, the temperature was increased to 45° C. for an additional 24 hours. After that the chamber was filled with the dry N2 gas, the rubber stoppers were pushed down and the vials were sealed with aluminum crimped seal.
The samples were assayed right after drying and after 30 days of storage at 40° C. After drying the Urokinase, activity was 93% of the initial activity. This decrease was associated with the loss of Urokinase during transformation from initial vials to the vials at which the Urokinase was dried. […]

Compound | Potency of Amphotericin (%) ([1]; Freeze-dried control) | Potency of Amphotericin (%) After 30 days of storage at 27.5° C. ([1]; Td = 25° C.) [%] | Potency of Amphotericin (%) After drying ([1]; Td = 25° C. (maximum temperature during drying)) [%] | Potency of Amphotericin (%) After 30 days of storage at 27.5° C. ([1]; Td = 45° C.) [%] | Potency of Amphotericin (%) After 30 days of storage at 40° C. ([1]; Td = 45° C.) [%] | Potency of Amphotericin (%) After drying ([1]; Td = 45° C.) [%] | Urokinase activity, % of the initial activity ([2]; after 30 days of storage at 40° C.) [%] | Urokinase activity, % of the initial activity ([2]; right after drying (max 45° C.)) [%]
C[C@@H]1[C@H](O)[C@@H](C)/C=C/C=C/C=C/C=C/C=C/C=C/C=C/[C@H](O[C@@H]2O[C@H](C)[C@@H](O)[C@H](N)[C@@H]2O)C[C@@H]2O[C@](O)(C[C@@H](O)C[C@@H](O)[C@H](O)CC[C@@H](O)C[C@@H](O)CC(=O)O[C@H]1C)C[C@H](O)[C@H]2C(=O)O [Amphotericin, Amphotericin B] | 126 | 114 | 108 | 102 | 104 | 103 | – | –
Urokinase | – | – | – | – | – | – | 90 | 93

Source: US6509146B1, “Scalable long-term shelf preservation of sensitive biological solutions and suspensions” (Universal Preservation Technologies, Inc., priority 1996, dated 2003)
